# Source: patent US12139487B2, “Compounds and uses thereof” (Foghorn Therapeutics Inc., priority 2022, dated 2024)
# Assays:
# BRM = target: T1, BRM (Homo sapiens, UniProt P51531); assay: ATPase catalytic activity assay (ADP-Glo), BRM; format: biochemical; settings: Table 10; for Ratio (BRG1 IC50 (μM) divided by BRM IC50 (μM)): ATPase assay, selectivity BRG1/BRM; for IC50: ATPase catalytic activity assay (ADP-Glo)
# T1 construct: made in house; host or cells: High Five insect cells
# Procedure, shortened: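 Reaction holds 30 nM BRM, 20 nM salmon sperm DNA and 400 μM ATP in 20 mM Tris pH 8, 20 mM MgCl2, 50 mM NaCl, 0.1% Tween-20, 1 mM DTT. Incubated 1 h at room temperature. ADP formed is detected by ADP-Glo luminescence.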
# BRG-1 = target: T2, BRG-1 (Homo sapiens, UniProt P51532); assay: ATPase catalytic activity assay (ADP-Glo), BRG-1; format: biochemical; settings: Table 10, read-out: BRG1 IC50
# T2 construct: made in house; host or cells: High Five insect cells
# Procedure, shortened: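 Biochemical ADP-Glo assay, BRG-1. Post-reaction: ATP depletion reagent, 40 min RT; ADP→ATP conversion/detection reagent, 60 min RT; luminescence read on plate luminometer.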
# T1 sequence (P51531 whole entry): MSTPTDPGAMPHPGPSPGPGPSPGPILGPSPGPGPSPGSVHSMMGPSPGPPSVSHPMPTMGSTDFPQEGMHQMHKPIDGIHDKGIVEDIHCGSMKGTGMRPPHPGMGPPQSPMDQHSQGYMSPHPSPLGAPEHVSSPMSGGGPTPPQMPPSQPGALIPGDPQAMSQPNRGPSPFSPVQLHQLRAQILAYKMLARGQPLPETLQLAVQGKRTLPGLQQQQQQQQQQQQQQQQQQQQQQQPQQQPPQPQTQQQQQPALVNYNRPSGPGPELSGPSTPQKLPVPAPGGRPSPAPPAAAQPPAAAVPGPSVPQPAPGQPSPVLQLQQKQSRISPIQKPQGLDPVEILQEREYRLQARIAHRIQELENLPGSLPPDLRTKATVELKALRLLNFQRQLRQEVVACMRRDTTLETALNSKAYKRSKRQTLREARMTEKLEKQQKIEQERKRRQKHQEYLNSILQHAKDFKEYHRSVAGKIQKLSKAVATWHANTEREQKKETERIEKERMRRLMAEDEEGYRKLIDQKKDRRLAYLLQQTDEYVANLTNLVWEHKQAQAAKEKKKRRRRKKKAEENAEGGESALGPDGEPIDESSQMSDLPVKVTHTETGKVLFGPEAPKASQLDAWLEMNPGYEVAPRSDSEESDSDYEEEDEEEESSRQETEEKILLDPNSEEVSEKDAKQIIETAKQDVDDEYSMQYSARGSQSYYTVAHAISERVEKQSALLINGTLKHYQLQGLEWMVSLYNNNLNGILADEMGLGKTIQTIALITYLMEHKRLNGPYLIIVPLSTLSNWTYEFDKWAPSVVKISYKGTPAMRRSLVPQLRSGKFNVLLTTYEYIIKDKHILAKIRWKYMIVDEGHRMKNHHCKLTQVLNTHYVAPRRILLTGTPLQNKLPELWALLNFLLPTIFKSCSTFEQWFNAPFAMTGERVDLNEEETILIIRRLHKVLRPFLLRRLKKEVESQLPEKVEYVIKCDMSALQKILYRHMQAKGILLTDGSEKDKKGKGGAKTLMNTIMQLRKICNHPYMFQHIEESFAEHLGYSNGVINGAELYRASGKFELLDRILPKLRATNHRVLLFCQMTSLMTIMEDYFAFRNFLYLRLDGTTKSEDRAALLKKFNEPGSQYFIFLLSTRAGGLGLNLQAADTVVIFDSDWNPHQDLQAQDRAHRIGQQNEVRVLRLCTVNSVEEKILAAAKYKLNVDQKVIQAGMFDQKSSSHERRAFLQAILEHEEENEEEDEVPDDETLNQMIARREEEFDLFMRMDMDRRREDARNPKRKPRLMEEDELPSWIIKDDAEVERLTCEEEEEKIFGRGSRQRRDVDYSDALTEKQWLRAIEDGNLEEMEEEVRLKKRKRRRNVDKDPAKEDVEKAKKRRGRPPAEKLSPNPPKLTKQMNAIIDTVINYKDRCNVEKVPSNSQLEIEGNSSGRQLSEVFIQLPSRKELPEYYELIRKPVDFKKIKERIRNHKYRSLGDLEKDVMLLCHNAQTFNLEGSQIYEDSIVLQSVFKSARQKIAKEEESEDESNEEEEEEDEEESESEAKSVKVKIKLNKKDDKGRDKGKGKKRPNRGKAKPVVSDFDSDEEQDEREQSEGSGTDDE
# T2 sequence (P51532 whole entry): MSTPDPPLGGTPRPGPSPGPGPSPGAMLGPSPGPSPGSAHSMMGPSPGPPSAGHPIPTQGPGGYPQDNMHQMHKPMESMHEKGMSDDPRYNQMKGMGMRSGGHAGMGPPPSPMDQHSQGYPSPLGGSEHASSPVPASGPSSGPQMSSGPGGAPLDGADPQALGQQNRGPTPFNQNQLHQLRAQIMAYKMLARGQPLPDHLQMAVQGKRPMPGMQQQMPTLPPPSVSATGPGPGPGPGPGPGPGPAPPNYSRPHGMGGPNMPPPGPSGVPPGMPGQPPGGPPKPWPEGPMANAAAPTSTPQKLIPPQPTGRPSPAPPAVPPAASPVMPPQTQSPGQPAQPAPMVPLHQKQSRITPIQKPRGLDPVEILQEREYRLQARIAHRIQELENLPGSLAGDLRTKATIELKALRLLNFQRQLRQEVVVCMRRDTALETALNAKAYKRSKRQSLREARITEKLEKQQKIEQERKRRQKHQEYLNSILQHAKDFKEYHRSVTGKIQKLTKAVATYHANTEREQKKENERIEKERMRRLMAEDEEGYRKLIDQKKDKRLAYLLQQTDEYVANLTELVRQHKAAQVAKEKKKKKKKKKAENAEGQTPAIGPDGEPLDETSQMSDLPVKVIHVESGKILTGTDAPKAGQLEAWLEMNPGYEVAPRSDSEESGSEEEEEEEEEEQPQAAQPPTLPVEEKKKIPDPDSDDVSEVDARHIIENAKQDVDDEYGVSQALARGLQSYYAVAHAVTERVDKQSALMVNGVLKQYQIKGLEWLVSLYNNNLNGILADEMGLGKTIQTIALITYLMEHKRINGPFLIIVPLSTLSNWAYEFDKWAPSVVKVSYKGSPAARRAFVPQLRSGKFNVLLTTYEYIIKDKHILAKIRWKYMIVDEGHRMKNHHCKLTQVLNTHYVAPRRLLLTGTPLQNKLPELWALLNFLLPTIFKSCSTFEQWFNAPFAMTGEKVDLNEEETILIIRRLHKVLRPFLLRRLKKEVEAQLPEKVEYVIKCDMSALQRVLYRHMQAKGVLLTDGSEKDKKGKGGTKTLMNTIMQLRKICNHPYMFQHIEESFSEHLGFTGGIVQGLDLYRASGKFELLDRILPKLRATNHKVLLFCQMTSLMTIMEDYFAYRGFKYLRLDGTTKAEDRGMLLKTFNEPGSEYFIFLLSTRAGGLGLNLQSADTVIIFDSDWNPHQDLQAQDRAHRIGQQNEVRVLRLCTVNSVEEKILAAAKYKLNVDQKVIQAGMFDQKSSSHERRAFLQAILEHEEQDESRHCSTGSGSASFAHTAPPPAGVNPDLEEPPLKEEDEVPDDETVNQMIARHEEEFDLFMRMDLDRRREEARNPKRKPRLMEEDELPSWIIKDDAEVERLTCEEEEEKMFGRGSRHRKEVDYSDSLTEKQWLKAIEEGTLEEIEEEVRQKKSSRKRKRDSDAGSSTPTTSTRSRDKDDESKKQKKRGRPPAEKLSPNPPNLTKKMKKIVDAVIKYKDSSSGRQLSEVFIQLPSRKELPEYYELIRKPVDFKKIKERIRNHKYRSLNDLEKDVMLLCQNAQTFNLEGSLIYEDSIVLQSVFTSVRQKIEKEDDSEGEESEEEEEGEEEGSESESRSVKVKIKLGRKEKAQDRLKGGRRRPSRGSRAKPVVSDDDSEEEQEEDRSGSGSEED
Structure (SMILES),Ratio (BRG1 IC50 (μM) divided by BRM IC50 (μM)) (BRM),IC50 (BRM) [nM],IC50 (BRG-1) [nM]
C[C@@H]1CN(c2cccc(-c3ccc4cnc(CNC(=O)c5cc(F)c6c(c5)S(=O)(=O)[C@@H](F)CO[C@@H]6C)cc4n3)n2)C[C@H](C)O1 [Compound 134],20.63,4.6,98.6
[2H]C([2H])([2H])Oc1nc(C(F)F)ccc1-c1ccc2cnc(CNC(=O)c3cc(F)c4c(c3)S(=O)(=O)[C@@H](F)CCO4)cc2n1 [Compound 135],23.88,4.6,110
COc1nc(C(F)F)ccc1-c1ccc2cnc(CNC(=O)c3cc(F)c4c(c3)S(=O)(=O)[C@@H](F)CCO4)c(F)c2n1 [Compound 136],13.12,4.6,74.9
COc1nc(C(F)F)ccc1-c1ccc2cnc(CNC(=O)c3cc(F)c4c(c3)S(=O)(=O)[C@@H](F)COC4)cc2c1 [Compound 137],21.45,4.7,99.7
O=C(NCc1cc2nc(N3CCOc4cc(N5C[C@H](F)[C@@H](F)C5)cnc43)ccc2cn1)c1cc(F)c2c(c1)S(=O)(=O)[C@@H](F)CCO2 [Compound 138],18.95,4.7,88.2
[2H]C1([2H])OC[C@H](F)S(=O)(=O)c2cc(C(=O)NCc3cc4nc(N5CCOc6ccc(C(F)F)nc65)ccc4cn3)cc(F)c21 [Compound 140],17.66,4.7,83.1
COc1nc(-c2ccc3cnc(CNC(=O)c4cc(F)c5c(c4)S(=O)(=O)[C@@H](F)CCO5)cc3n2)ccc1C(F)F [Compound 143],21.43,4.7,98.5
O=C(NCc1cc2nc(N3CCOc4cc(C56CC(C5)C6)cnc43)ccc2cn1)c1cc(F)c2c(c1)S(=O)(=O)[C@@H](F)COC2 [Compound 146],15.71,4.8,72.9
COCCN(C)c1cnc2c(c1)CCCN2c1ccc2cnc(CNC(=O)c3cc(F)c4c(c3)S(=O)(=O)[C@@H](F)CCO4)cc2n1 [Compound 149],13.78,4.9,67.7
CCOc1nc(C(F)F)ccc1-c1ccc2cnc(CNC(=O)c3cc(F)c4c(c3)S(=O)(=O)[C@@H](F)CCO4)cc2n1 [Compound 151],16.49,4.9,76.6
CCOCc1cnc2c(c1)OCCN2c1ccc2cnc(CNC(=O)c3cc(F)c4c(c3)S(=O)(=O)[C@@H](F)CCO4)cc2n1 [Compound 154],15.21,5,68
O=C(NCc1cc2nc(N3CCOc4ccc([C@@H]5C[C@H]5F)nc43)ccc2cn1)c1cc(F)c2c(c1)S(=O)(=O)[C@@H](F)CCO2 [Compound 156],23.13,5,97
O=C(NCc1cc2nc(N3CCOc4cc(C(F)F)cnc43)ccc2cn1)c1cc(F)c2c(c1)S(=O)(=O)[C@@H](F)CCO2 [Compound 159],14.72,5.1,100
C[C@H]1OC[C@H](F)S(=O)(=O)c2cc(C(=O)NCc3cc4nc(N5CCOc6cc(C7CC7)cnc65)ccc4cn3)ccc21 [Compound 162],17.63,11.3,221
C[C@@H]1CCN1c1cnc2c(c1)OCCN2c1ccc2cnc(CNC(=O)c3cc(Cl)c4c(c3)S(=O)(=O)[C@@H](F)CCO4)cc2n1 [Compound 165],22.18,5.3,143
O=C(NCc1cc2nc(N3CCOc4cc([C@H]5CC5(F)F)cnc43)ccc2cn1)c1cc(F)c2c(c1)S(=O)(=O)[C@@H](F)CCO2 [Compound 166],15.93,5.3,83.8

# Other lines, results leading:
Ratio (BRG1 IC50 (μM) divided by BRM IC50 (μM)) (BRM),IC50 (BRM) [nM],IC50 (BRG-1) [nM],Structure (SMILES)
24.09,4.7,147,O=C(NCc1cc2nc(N3CCOc4cc(N5CC(F)C5)cnc43)ccc2cn1)c1cc(F)c2c(c1)S(=O)(=O)[C@@H](F)CCO2 [Compound 139]
16.19,4.7,76.3,O=C(NCc1cc2cc(N3CCOc4cc(C5CC5)cnc43)ccc2cn1)c1cc(F)c2c(c1)S(=O)(=O)[C@@H](F)CCO2 [Compound 141]
19.04,4.7,89.1,C[C@H]1[C@H](F)CN1c1cnc2c(c1)OCCN2c1ccc2cnc(CNC(=O)c3cc(F)c4c(c3)S(=O)(=O)[C@@H](F)CCO4)cc2n1 [Compound 142]
25.02,4.8,109,COc1ccc(-c2ccc3cnc(CNC(=O)c4cc(F)c5c(c4)S(=O)(=O)[C@@H](F)CCO5)cc3n2)nc1[C@@H]1CC1(F)F [Compound 144]
16.05,4.8,77.2,O=C(NCc1cc2nc(N3CCOc4cc(CC(F)F)cnc43)ccc2cn1)c1cc(F)c2c(c1)S(=O)(=O)[C@@H](F)CCO2 [Compound 145]
11.98,4.8,58.1,COCc1ccnc2c1OCCN2c1ccc2cnc(CNC(=O)c3cc(F)c4c(c3)S(=O)(=O)[C@@H](F)CCO4)cc2n1 [Compound 147]
17.59,4.9,82.6,"C[C@@H]1CN(c2cccc(-c3ccc4cnc(CNC(=O)c5cc(Cl)c6c(c5)S(=O)(=O)[C@@H](F)CCO6)cc4n3)n2)C[C@H](C)O1 [Compound 148, (R)-9-chloro-N-((2-(6-((2S,6R)-2,6-dimethylmorpholino)pyridin-2-yl)-1,6-naphthyridin-7-yl)methyl)-4-fluoro-3,4-dihydro-2H-benzo[b][1,4]oxathiepine-7-carboxamide 5,5-dioxide]"
21.42,4.9,119,COc1nc(C(C)(F)F)ccc1-c1ccc2cnc(CNC(=O)c3cc(F)c4c(c3)S(=O)(=O)[C@@H](F)CCO4)cc2n1 [Compound 150]
11.35,5,53,CO[C@@H]1C[C@H]1c1cnc2c(c1)OCCN2c1ccc2cnc(CNC(=O)c3cc(F)c4c(c3)S(=O)(=O)[C@@H](F)CCO4)cc2n1 [Compound 152]
13.92,5,69.5,COc1cnc2c(c1)OCCN2c1ccc2cnc(CNC(=O)c3cc(F)c4c(c3)S(=O)(=O)[C@@H](F)CCO4)cc2c1 [Compound 153]
19.80,5,88,O=C(NCc1cc2nc(-c3csnc3OC(F)F)ccc2cn1)c1cc(F)c2c(c1)S(=O)(=O)[C@@H](F)CCO2 [Compound 155]
18.45,5.1,96.8,CC(C)c1cnc2c(c1)OCCN2c1ccc2cnc(CNC(=O)c3cc(F)c4c(c3)S(=O)(=O)[C@@H](F)CCO4)cc2n1 [Compound 157]
17.08,5.1,86.7,COc1cc(F)ccc1-c1ccc2cnc(CNC(=O)c3cc(F)c4c(c3)S(=O)(=O)[C@@H](F)CCO4)cc2n1 [Compound 158]
17.82,5.1,76,Cc1cc(C(=O)NCc2cc3nc(N4CCOc5cc(N6CC[C@H]6C)cnc54)ccc3cn2)cc2c1OCC[C@H](F)S2(=O)=O [Compound 160]
9.63,5.1,49.3,Cc1cc2c(-c3ccc4cnc(CNC(=O)c5cc(F)c6c(c5)S(=O)(=O)[C@@H](F)CCO6)cc4n3)cccc2n1C [Compound 161]
–,5.2,116,[2H]C1([2H])OC([2H])([2H])[C@H](F)S(=O)(=O)c2cc(C(=O)NCc3cc4nc(N5CCOc6ccc(C(F)F)nc65)ccc4cn3)cc(F)c21 [Compound 163]
32.00,5.2,172,O=C(NCc1cc2nc(N3CCOc4ccc([C@H]5C[C@@H]5F)nc43)ccc2cn1)c1cc(F)c2c(c1)S(=O)(=O)[C@@H](F)CCO2 [Compound 164]
10.82,5.3,56.7,COc1nc(C(F)F)ccc1-c1ccc2cnc(CNC(=O)c3cc(F)c4c(c3)S(=O)(=O)[C@@H](F)COC4)c(F)c2n1 [Compound 167]
15.00,5.3,79.5,O=C(NCc1cc2nc(N3CCCc4cc(N5C[C@@H](F)[C@H](F)C5)cnc43)ccc2cn1)c1cc(F)c2c(c1)S(=O)(=O)[C@@H](F)CCO2 [Compound 168]
10.91,5.3,58.3,O=C(NCc1cc2nc(N3CCCc4c(OC(F)F)ccnc43)ccc2cn1)c1cc(F)c2c(c1)S(=O)(=O)[C@@H](F)CCO2 [Compound 169]
24.59,5.3,122,CCOc1cccc(-c2ccc3cnc(CNC(=O)c4cc(F)c5c(c4)S(=O)(=O)[C@@H](F)CCO5)cc3n2)n1 [Compound 170]
16.27,5.5,89.1,[2H]C1([2H])Oc2c(F)cc(C(=O)NCc3cc4nc(N5CCOc6cc(N7CC(F)C7)cnc65)ccc4cn3)cc2S(=O)(=O)[C@@]([2H])(F)C1([2H])[2H] [Compound 171]
